Literature values in patent US5229007A (priority 1992, dated 1993).

Key:
[1] = test system: insect; conditions: in vivo

## C/C=C(\C)C(=O)O[C@H]1C[C@@H](OC(C)=O)[C@@]2(C(=O)OC)CO[C@H]3[C@@H](O)[C@@](C)([C@]45O[C@@]4(C)[C@H]4C[C@@H]5O[C@@H]5OC=C[C@@]54O)[C@H]4[C@]1(CO[C@]4(O)C(=O)OC)[C@@H]32 [azadirachtin]
[1]
  insect growth regulator and feeding deterrent activity: potent insect growth regulator and feeding deterrent
Alkaline solutions
  stability in alkaline solutions: degraded in alkaline solutions
Elevated temperatures
  stability at elevated temperatures: decomposes at elevated temperatures
